Converted amounts (≈) assume the structure as drawn. Read-outs that look alike come from different tables or passages of the source.
Key:
[1] = tested on: A/FM/1/47 H1N1; test: Antiviral plaque assay, A/FM/1/47 H1N1; conditions: MDCK cells
Experimental: (§1) The in vitro anti-influenza activities of COMPOUND A, COMPOUND B, COMPOUND C and amantadine were evaluated using a standard plaque assay such as described in Hayden et al., Antimicrob. Agents Chemother., vol. 17, pages 865-870, (1980), herein incorporated by reference. In this assay, influenza virus-infected Madin Darby canine kidney (MDCK) cells were untreated or treated with serial dilutions of each compound. The concentration of compound required to inhibit viral plaque formation by 50% (IC50) was determined from the linear regression line of the plot of compound concentration versus percent inhibition of plaque formation. In addition, the IC50 can be determined by the method of Reed and Muench, Am. J. Hyg, vol. 27, 493-497 (1938) which is herein incorporated by reference.

[2] = tested on: B/GL; test: Antiviral plaque assay, B/GL; format: cell-based; conditions: Influenza B virus, MDCK cells
Experimental: as §1

[3] = tested on: A/AICHI H3N2; test: Antiviral plaque assay, A/AICHI H3N2; conditions: MDCK cells
Experimental: as §1

[4] = tested on: B/Lee; test: Antiviral plaque assay, B/Lee; format: cell-based; conditions: Influenza B virus, MDCK cells
Experimental: as §1

[5] = tested on: A/NWS H1N1; test: Antiviral plaque assay, A/NWS H1N1; conditions: MDCK cells
Experimental: as §1

[6] = tested on: M2 ion channel; conditions: influenza A; cited from earlier work
[7] = tested on: influenza A/Kawasaki (A/KAW H1N1); test: Antiviral plaque assay, A/KAW H1N1; conditions: MDCK cells
Experimental: as §1

[8] = tested on: A/AA H2N2; test: microbe, parasite or virus in culture; conditions: H2N2, MDCK
[9] = tested on: B/Maryland; test: Antiviral plaque assay, B/Maryland; format: cell-based; conditions: Influenza B virus, MDCK cells
Experimental: as §1

[10] = tested on: BVDV; test: microbe, parasite or virus in culture; format: cell-based, bovine diarrheal virus (BVDV); conditions: Bovine viral diarrhea virus isolates and strains, MDBK, in Bos taurus
[11] = in vitro; conditions: bovine, mdbk cells
[12] = tested on: influenza A/WSN/33
[13] = tested on: HA of A/Kawasaki/86
[14] = tested on: HA of A/WSN/33
[15] = tested on: infectious virions; design: species or system influenza virus
[16] = read-out: IC50 (virus replication inhibited by 50%)

## NC12CC3CC(CC(C3)C1)C2 [Amantadine, amantadine, reference compound]
[1]
  IC50: 0.13 µg/mL (≈ 0.859 µM)
[2]
  IC50: > 10 µg/mL
[3]
  IC50: 0.076 µg/mL (≈ 0.502 µM)
[4]
  IC50: > 10 µg/mL
[5]
  IC50: > 10 µg/mL
[6]
  function of the M2 ion channel activity: inhibiting the function of the M2 ion channel activity
[7]
  IC50: 0.036 µg/mL (≈ 0.238 µM)
[8]
  IC50: 0.037 µg/mL (≈ 0.245 µM)
[9]
  IC50: > 10 µg/mL

## CC(N)C12CC3CC(CC(C3)C1)C2 (centres unmarked) [rimantadine]
[6]
  function of the M2 ion channel activity: inhibiting the function of the M2 ion channel activity

## O=C(O)CCC1(c2ccccc2)CCCCC1 [COMPOUND C]
[1]
  IC50: 0.15 µg/mL (≈ 0.646 µM)
[2]
  IC50: > 10 µg/mL
[3]
  IC50: ~10 µg/mL (≈ 43 µM)
[4]
  IC50: > 10 µg/mL
[5]
  IC50: > 10 µg/mL
[7]
  IC50: 0.07 µg/mL (≈ 0.301 µM)
[8]
  IC50: 0.069 µg/mL (≈ 0.297 µM)
[9]
  IC50: 6.34 µg/mL (≈ 27.3 µM)

## COC(=O)C1(C)CCCC2(C)c3ccccc3C(=O)CC12 (centres unmarked) [K]
[10]; read-out: IC50
  IC50: 51 µg/mL (≈ 178 µM)
[10]; [16]
  IC50: 15 µg/mL (≈ 52.3 µM)
[11]
  CC50: > 100 µg/mL

## COC(=O)[C@@]1(C)CCC[C@@]2(C)C1=CC(=NO)c1ccc(OC)cc12 [J]
[10]; read-out: IC50
  IC50: 8.9 µg/mL (≈ 27 µM)
[10]; [16]
  IC50: 5.25 µg/mL (≈ 15.9 µM)
[11]
  CC50: 30.8 µg/mL (≈ 93.4 µM)

## COC(=O)[C@@]1(C)CCC[C@]2(C)c3cc(OC)ccc3C(=O)C[C@@H]12 [COMPOUND A]
[1]
  IC50: < 0.032 µg/mL
[2]
  IC50: 5.65 µg/mL (≈ 17.9 µM)
[10]; read-out: IC50
  IC50: 13.5 µg/mL (≈ 42.6 µM)
[10]; [16]
  IC50: 3.56 µg/mL (≈ 11.3 µM)
[10]; read-out: concentration inhibiting replication by 50%
  IC50: 3.5 µg/mL (≈ 11.1 µM)
[10]; read-out: concentration inhibiting replication by 90%
  IC90: 13.4 µg/mL (≈ 42.4 µM)
[3]
  IC50: ~10 µg/mL (≈ 31.6 µM)
[12]
  susceptibility of A/WSN/33: naturally resistant
[4]
  IC50: ~1.23 µg/mL (≈ 3.89 µM)
[13]
  effect on expression of HA on the infected cell surface (erythrocyte binding): no effect
[13]; pH 4.8
  low pH-induced fusion of MDCK cells with human erythrocytes: inhibition of the low pH-induced fusion
[5]
  IC50: > 10 µg/mL
[14]
  effect on fusion of human erythrocytes with A/WSN/33-infected MDCK cells: no effect
[15]
  antiviral activity after pre-incubation with infectious virions: inactive
[7]
  IC50: < 0.032 µg/mL
[11]
  CC50: 51.8 µg/mL (≈ 164 µM)
[8]
  IC50: < 0.032 µg/mL
[9]
  IC50: ~2.7 µg/mL (≈ 8.53 µM)

## COC(=O)C1(C)CCCC2(C)c3ccc(O)cc3C(=O)CC12 (centres unmarked) [Compound I]
[10]; read-out: IC50
  IC50: 16 µg/mL (≈ 53 µM)
[10]; [16]
  IC50: 4.94 µg/mL (≈ 16.3 µM)
[11]
  CC50: 32 µg/mL (≈ 106 µM)

## O=C(NCC(c1ccccc1)c1ccncc1)Nc1ccccc1Cl (centres unmarked) [COMPOUND B]
[1]
  IC50: 0.18 µg/mL (≈ 0.512 µM)
[2]
  IC50: 2.83 µg/mL (≈ 8.04 µM)
[3]
  IC50: ~7.26 µg/mL (≈ 20.6 µM)
[4]
  IC50: ~1.08 µg/mL (≈ 3.07 µM)
[5]
  IC50: ~9.59 µg/mL (≈ 27.3 µM)
[7]
  IC50: 0.024 µg/mL (≈ 0.0682 µM)
[8]
  IC50: 0.15 µg/mL (≈ 0.426 µM)
[9]
  IC50: ~2.23 µg/mL (≈ 6.34 µM)
